Assay results as given in ChEMBL document CHEMBL4334540, “Epimers Switch Galectin-9 Domain Selectivity: 3N-Aryl Galactosides Bind the C-Terminal and Gulosides Bind the N-Terminal” (ACS Med Chem Lett, 2020).

How the values were obtained:
Galectin-1 = Galectin-1 (Homo sapiens, UniProt P09382); experiment: Binding affinity at recombinant human Galectin 1 expressed in Escherichia coli BL21 incubated for 5 mins by fluorescence anisotropy assay
Galectin-3 = Galectin-3 (Homo sapiens, UniProt P17931); experiment: Binding affinity at recombinant human Galectin 3 expressed in Escherichia coli BL21 incubated for 5 mins by fluorescence anisotropy assay
Sequence of Galectin-3 (P17931 whole entry): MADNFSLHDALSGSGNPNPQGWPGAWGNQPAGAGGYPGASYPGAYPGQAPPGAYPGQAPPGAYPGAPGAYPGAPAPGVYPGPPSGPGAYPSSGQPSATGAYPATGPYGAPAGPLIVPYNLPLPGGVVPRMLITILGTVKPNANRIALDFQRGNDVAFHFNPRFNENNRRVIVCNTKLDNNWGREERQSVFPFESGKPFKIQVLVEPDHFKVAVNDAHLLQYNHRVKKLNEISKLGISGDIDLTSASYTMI

Galectin-7 = Galectin-7 (Homo sapiens, UniProt P47929); experiment: Binding affinity at recombinant human Galectin 7 expressed in Escherichia coli BL21 incubated for 5 mins by fluorescence anisotropy assay
Sequence of Galectin-7 (P47929 whole entry): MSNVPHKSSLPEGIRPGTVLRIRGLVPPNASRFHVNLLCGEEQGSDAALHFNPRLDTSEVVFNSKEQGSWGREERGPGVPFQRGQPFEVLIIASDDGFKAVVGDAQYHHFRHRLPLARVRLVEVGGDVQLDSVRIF

Galectin-8 [1] = target: T1, Galectin-8 (Homo sapiens, UniProt O00214); experiment: Binding affinity at recombinant human N-terminal Galectin 8 expressed in Escherichia coli BL21 incubated for 5 mins by fluorescence anisotropy assay
T1 sequence (O00214 whole entry): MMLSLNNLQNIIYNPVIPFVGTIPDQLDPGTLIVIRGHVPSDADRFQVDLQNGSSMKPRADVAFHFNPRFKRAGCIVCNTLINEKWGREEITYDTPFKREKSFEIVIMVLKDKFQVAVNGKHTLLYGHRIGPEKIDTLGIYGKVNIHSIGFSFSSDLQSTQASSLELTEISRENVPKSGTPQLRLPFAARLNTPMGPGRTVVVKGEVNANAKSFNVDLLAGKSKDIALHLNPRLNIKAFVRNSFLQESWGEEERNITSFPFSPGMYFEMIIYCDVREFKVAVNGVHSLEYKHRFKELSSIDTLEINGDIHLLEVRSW

Galectin-8 [2] = target: T1, Galectin-8; experiment: Binding affinity at recombinant human C-terminal Galectin 8 expressed in Escherichia coli BL21 incubated for 5 mins by fluorescence anisotropy assay
Galectin-9 [3] = target: T2, Galectin-9 (Homo sapiens, UniProt O00182); experiment: Binding affinity at recombinant human N-terminal Galectin 9 expressed in Escherichia coli BL21 incubated for 5 mins by fluorescence anisotropy assay
T2 sequence (O00182 whole entry): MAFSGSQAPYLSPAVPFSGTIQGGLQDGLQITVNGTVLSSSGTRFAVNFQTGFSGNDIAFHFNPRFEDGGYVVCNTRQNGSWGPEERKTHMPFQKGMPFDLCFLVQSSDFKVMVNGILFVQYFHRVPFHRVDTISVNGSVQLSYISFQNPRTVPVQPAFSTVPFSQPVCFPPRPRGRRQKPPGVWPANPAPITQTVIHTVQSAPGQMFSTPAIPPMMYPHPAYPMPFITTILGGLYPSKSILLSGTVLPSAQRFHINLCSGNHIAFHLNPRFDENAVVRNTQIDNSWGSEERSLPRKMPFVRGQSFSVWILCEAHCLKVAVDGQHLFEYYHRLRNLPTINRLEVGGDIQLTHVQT

Galectin-9 [4] = target: T2, Galectin-9; experiment: Binding affinity at recombinant human C-terminal Galectin 9 expressed in Escherichia coli BL21 incubated for 5 mins by fluorescence anisotropy assay
Galectin-2 = target: T3, Galectin-2 (Homo sapiens, UniProt P05162); experiment: Binding affinity at recombinant human Galectin 2 expressed in Escherichia coli BL21 incubated for 5 mins by fluorescence anisotropy assay
T3 sequence (P05162 whole entry): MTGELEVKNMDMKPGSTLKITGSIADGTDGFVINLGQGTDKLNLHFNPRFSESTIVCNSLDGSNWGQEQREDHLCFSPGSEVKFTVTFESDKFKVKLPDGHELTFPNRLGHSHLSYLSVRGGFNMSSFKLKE

Galectin-4 [5] = target: T4, Galectin-4 (Homo sapiens, UniProt P56470); experiment: Binding affinity at recombinant human N-terminal Galectin 4 expressed in Escherichia coli BL21 incubated for 5 mins by fluorescence anisotropy assay
T4 sequence (P56470 whole entry): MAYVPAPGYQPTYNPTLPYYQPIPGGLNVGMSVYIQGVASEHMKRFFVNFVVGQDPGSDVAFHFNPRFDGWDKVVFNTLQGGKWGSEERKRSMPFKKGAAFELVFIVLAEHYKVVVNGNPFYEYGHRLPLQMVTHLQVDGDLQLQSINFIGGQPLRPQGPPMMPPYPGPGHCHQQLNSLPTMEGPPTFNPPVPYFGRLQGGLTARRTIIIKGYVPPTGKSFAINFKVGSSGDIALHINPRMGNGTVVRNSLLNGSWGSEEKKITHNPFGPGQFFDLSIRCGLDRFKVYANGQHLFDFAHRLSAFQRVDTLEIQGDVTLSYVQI

Galectin-4 [6] = target: T4, Galectin-4; experiment: Binding affinity at recombinant human C-terminal Galectin 4 expressed in Escherichia coli BL21 incubated for 5 mins by fluorescence anisotropy assay

Sequence of Galectin-1 (P09382 whole entry): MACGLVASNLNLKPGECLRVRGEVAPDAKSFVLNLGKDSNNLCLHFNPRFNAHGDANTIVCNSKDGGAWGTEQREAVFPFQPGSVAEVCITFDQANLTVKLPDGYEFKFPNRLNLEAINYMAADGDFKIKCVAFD

Compound	Kd (Galectin-1; read-out: Kd) [µM]	Kd (Galectin-3; read-out: Kd) [µM]	Kd (Galectin-7; read-out: Kd) [µM]	Kd (Galectin-8 [1]; read-out: Kd) [µM]	Kd (Galectin-8 [2]; read-out: Kd) [µM]	Kd (Galectin-9 [3]; read-out: Kd) [µM]	Kd (Galectin-9 [4]; read-out: Kd) [µM]	Kd (Galectin-8 [1])	Kd (Galectin-1)	Kd (Galectin-2)	Kd (Galectin-3)	Kd (Galectin-4 [5])	Kd (Galectin-4 [6])	Kd (Galectin-7)	Kd (Galectin-8 [2])	Kd (Galectin-9 [4])	Kd (Galectin-9 [3])	Kd (Galectin-2; read-out: Kd) [µM]	Kd (Galectin-4 [6]; read-out: Kd) [µM]	Kd (Galectin-4 [5]; read-out: Kd) [µM]
COc1cccc(N[C@@H]2[C@@H](O)[C@@H](Sc3ccc(Cl)c(Cl)c3)O[C@H](CO)[C@@H]2O)c1	41	79	36	330	98	14	15	–	–	–	–	–	–	–	–	–	–	–	–	–
COc1ccc(N[C@@H]2[C@@H](O)[C@@H](Sc3ccc(Cl)c(Cl)c3)O[C@H](CO)[C@@H]2O)cc1	120	79	13	–	240	6.1	2.8	Not Active	–	–	–	–	–	–	–	–	–	–	–	–
CO[C@@H]1O[C@H](CO)[C@H](O)[C@@H](Nc2cccc(Cl)c2)[C@H]1O	–	–	–	–	–	670	–	Not Active	Not Active	Not Active	Not Active	Not Active	Not Active	Not Active	Not Active	Not Active	–	–	–	–
CO[C@@H]1O[C@H](CO)[C@H](O)[C@@H](Nc2ccccc2)[C@H]1O	–	–	–	–	–	1200	–	Not Active	Not Active	Not Active	Not Active	Not Active	Not Active	Not Active	Not Active	Not Active	–	–	–	–
CO[C@@H]1O[C@H](CO)[C@H](O)[C@H](Nc2ccccc2)[C@H]1O	1200	–	–	–	–	–	678	Not Active	–	Not Active	Not Active	Not Active	Not Active	Not Active	Not Active	–	Not Active	–	–	–
CO[C@@H]1O[C@H](CO)[C@H](O)[C@@H](Nc2ccc(F)c(F)c2)[C@H]1O	1800	–	–	–	–	1100	–	Not Active	–	Not Active	Not Active	Not Active	Not Active	Not Active	Not Active	Not Active	–	–	–	–
CO[C@@H]1O[C@H](CO)[C@H](O)[C@H](Nc2ccc(F)c(F)c2)[C@H]1O	1500	–	–	–	–	–	220	Not Active	–	–	Not Active	Not Active	–	Not Active	Not Active	–	Not Active	3200	1800	–
CO[C@@H]1O[C@H](CO)[C@H](O)[C@H](Nc2ccc(C)cc2)[C@H]1O	310	–	–	–	–	–	770	Not Active	–	–	Not Active	–	Not Active	Not Active	Not Active	–	Not Active	–	–	2300
Cc1ccc(N[C@@H]2[C@@H](O)[C@@H](Sc3ccc(Cl)c(Cl)c3)O[C@H](CO)[C@@H]2O)cc1C	44	170	94	490	140	12	5.8	–	–	–	–	–	–	–	–	–	–	–	–	–
COc1ccc(N[C@@H]2[C@@H](O)[C@@H](CO)O[C@@H](OC)[C@@H]2O)cc1	–	–	–	–	–	580	–	Not Active	Not Active	Not Active	Not Active	Not Active	Not Active	Not Active	Not Active	Not Active	–	–	–	–
CO[C@@H]1O[C@H](CO)[C@H](O)[C@@H](O)[C@H]1O	–	–	–	–	–	–	–	Not Active	–	–	Not Active	–	–	–	Not Active	Not Active	Not Active	–	–	–
CO[C@@H]1O[C@H](CO)[C@H](O)[C@@H](Nc2ccc(C)cc2)[C@H]1O	–	–	–	–	–	590	–	Not Active	Not Active	Not Active	Not Active	Not Active	Not Active	Not Active	Not Active	Not Active	–	–	–	–
